The values below come from article PMC7238241, “Lack of Correlation between In Vitro and In Vivo Studies on the Inhibitory Effects of (‒)-Sophoranone on CYP2C9 Is Attributable to Low Oral Absorption and Extensive Plasma Protein Binding of (‒)-Sophoranone” (Pharmaceutics, 2020).

Where “and” joins values, the source holds several entries; their conditions need not be identical. Identical values can stand only once. Like-named read-outs stand apart in the source and are kept apart here. Bounds are passed on as bounds.

One data set concerns the target T1, CYP2C19 (Homo sapiens, UniProt P33261).
T1 construct: tissue Corning Life Sciences; host or cells: pooled human liver microsomes, 150 donors
Nature of the data set: Reversible CYP2C19 inhibition, cocktail assay (omeprazole 5-hydroxylase) in human liver microsomes. The format is biochemical. The conditions noted are these: human liver microsomes 0.1 mg/mL, omeprazole probe, n = 3. Here is the method: (§1) The inhibitory effects of SPN on CYP1A2, CYP2A6, CYP2B6, CYP2C8, CYP2C9, CYP2C19, CYP2D6, CYP2E1, and CYP3A4 were evaluated in pooled human liver microsomes through the use of specific CYP probe substrates (cocktail assay), as previously described with a slight modification. Concentrations of each CYP probe in Table 1 were used close to their reported Km values.
(§2) Briefly, a 90-µL incubation mixture, including pooled human liver microsomes (final concentration 0.1 mg/mL), 50 mM phosphate buffer (pH 7.4), each CYP-probe substrate cocktail set, and SPN (0–50 μM), was pre-incubated for 5 min at 37 °C. SPN was dissolved in methanol and spiked into the incubation mixture to a final concentration of 0.5% methanol. […]
(§3) The IC50 values were calculated via nonlinear least-squares regression analysis from logarithmic plots of inhibitor concentration versus percentage of activity remaining after inhibition, using SigmaPlot (ver. 14.0; Systat Software Inc, Chicago, IL, USA). The Ki values were determined from the equations for a single substrate single inhibitor model and the software available in the SigmaPlot Enzyme Kinetics module. Competitive, non-competitive, uncompetitive, or mixed inhibition models were evaluated and ranked according to the best fit based on Akaike Information Criterion (AIC) values. […]
A general note: Microsomes from liver hold many membrane-bound enzymes, among them those of drug oxidation.

The next data set has as its target T2, CYP2D6 (Homo sapiens, UniProt P10635).
T2 construct: tissue Corning Life Sciences; host or cells: pooled human liver microsomes, 150 donors
Nature of the data set: Reversible CYP2D6 inhibition, cocktail assay (dextromethorphan O-demethylase) in human liver microsomes. The format is biochemical. Here is the method:
as §1, §2, §3

The target of the next data set is T3, CYP2C9 (Homo sapiens, UniProt P11712).
T3 construct: tissue Corning Life Sciences; host or cells: pooled human liver microsomes, 150 donors
Nature of the data set: Inhibition of other CYP2C9-specific pathways (diclofenac 4′-hydroxylation, losartan oxidation) in human liver microsomes. Format: biochemical. The procedure: The auto-optimized mass transitions were m/z 312 > 231 and m/z 437 > 207.1 for quantification of 4′-hydroxydiclofenac and losartan carboxylic acid, respectively. HPLC conditions were the same as those in the cocktail assay.
The IC50 values were calculated via nonlinear least-squares regression analysis from logarithmic plots of inhibitor concentration versus percentage of activity remaining after inhibition, using SigmaPlot (ver. 14.0; Systat Software Inc, Chicago, IL, USA). The Ki values were determined from the equations for a single substrate single inhibitor model and the software available in the SigmaPlot Enzyme Kinetics module. Competitive, non-competitive, uncompetitive, or mixed inhibition models were evaluated and ranked according to the best fit based on Akaike Information Criterion (AIC) values. For visual inspection, the data were presented as Dixon plots.

The subject of data set [1] is CYP1A2, CYP2A6, CYP2B6, CYP2C8, CYP2C9, CYP2C19, CYP2D6, CYP2E1, and CYP3A4. Nature of the data set: Time-dependent inactivation (IC50 shift) of the nine CYP isoforms in human liver microsomes. The format is biochemical. The conditions noted are these: 30 min pre-incubation with human liver microsomes in the presence of NADPH. Here is the method:
Pooled human liver microsomes (1 mg/mL) were incubated with SPN (0−50 µM) for 30 min at 37 °C in the absence or presence of an NADPH-generating system (i.e., the “inactivation incubation”). After inactivation incubation, aliquots (10 μL) were transferred into fresh incubation tubes (final volume 100 μL) containing an NADPH-generating system and each P450-selective substrate cocktail set. The reaction mixtures were incubated for 15 min at 37 °C in a shaking water bath. After incubation, the reactions were stopped by adding 200 µL of ice-cold acetonitrile containing 2 µM chlorpropamide, as an internal standard. The incubation mixtures were centrifuged (16,000× g, 15 min) and 5 μL of the supernatant was injected into the LC-MS/MS system. All incubations were performed in triplicate, and the data are shown as the mean ± standard deviation.

A short description of data set [2]: Unbound fraction in human plasma (rapid equilibrium dialysis). The format is in vitro ADME. The procedure:
(§4) The plasma or liver microsomal protein bindings were performed using a rapid equilibrium dialysis device and cellulose membranes with a molecular weight cutoff of 8000 (Thermo Scientific, Rockford, IL, USA). The rat and human plasma samples (200 μL) containing SPN at 10 and 50 μM, respectively, were dialyzed against a dialysis buffer, phosphate-buffered saline (PBS, 400 μL). The loaded dialysis plate was covered with sealing tape, placed on an orbital shaker at approximately 200 rpm, and incubated at 37 °C for 4 h. Thereafter, samples (100 μL) from both PBS and plasma chambers were collected and mixed with an equal volume of blank plasma and PBS, respectively. All samples were stored at −80 °C until LC-MS/MS analysis. The unbound fraction of SPN in human (or rat) plasma was calculated by dividing the SPN concentration in PBS by that in plasma.
For orientation: In equilibrium dialysis only unbound substance equilibrates across the membrane.

Data set [3] can be described thus: Unbound fraction in rat plasma (rapid equilibrium dialysis). Format: in vitro ADME. The procedure: as §4
The nature of data set [4]: Unbound fraction in human liver microsomes (rapid equilibrium dialysis). Format: in vitro ADME. The conditions noted are these: microsomal protein 0.1 mg/mL, n = 3. The procedure:
The human liver microsomal incubation mixtures (final concentration 0.1 mg/mL) without NADPH generating system were used to determine the unbound fraction of SPN. Other procedures were similar to those of plasma protein binding assay.

Another data set deals with CYP3A4. On the set-up: method as in PMID 29753067. The note with it: cited from earlier work.
Data set [5] can be described thus: Effects of SPN on the pharmacokinetics of diclofenac in rats. The conditions noted are these: rats.
Experimental: The carotid arteries of each rat were cannulated with a polyethylene tube (Clay Adams, Franklin Lakes, NJ, USA) for blood sampling. Each rat was individually housed in a rat metabolic cage and allowed to recover from anesthesia for 4–5 h prior to the start of the experiment. […] SPN was suspended in dimethylsulfoxide:PEG400:distilled water (5:60:35, v/v/v) and administered by oral gavage at a dose of 75 mg/kg in a volume of 5 mL/kg. […] The blood samples were immediately centrifuged at 13,000× g for 5 min at 4 °C. The plasma samples were divided into two Eppendorf tubes by 50 μL and stored at −80 °C until LC-MS/MS analysis.
Briefly, 50 μL aliquots of plasma were extracted with 300 μL aliquots of acetonitrile containing chlorpropamide (internal standard), followed by LC-MS/MS (Shimadzu Corporation). Chromatographic separation was performed on a Phenomenex Luna C18 column (100 × 2.00 mm; 3.0 μm). The isocratic mobile phase consisted of 0.1% formic acid in distilled water (A) and 0.1% formic acid in acetonitrile (B) (45:55, v/v), with a flow rate of 0.3 mL/min. […] The data acquisition was computed using LabSolutions LCMS Ver.5.6 (Shimadzu Corporation).
Pharmacokinetic parameters were calculated by a non-compartmental analysis using WinNonlin Professional software (version 5.2, Pharsight Corp., Mountain View, CA, USA) that used the total area under the plasma concentration–time curve from time zero to infinity (AUC∞) or the last measured time (AUCt). The logarithmic trapezoidal rule was used during the declining plasma level phase and the linear trapezoidal rule was used for the rising plasma-level phase. The peak plasma concentration (Cmax) and time to reach Cmax (Tmax) were read directly from the experimental data. Statistically significant differences were recognized at p < 0.05.

T3 sequence (P11712 whole entry): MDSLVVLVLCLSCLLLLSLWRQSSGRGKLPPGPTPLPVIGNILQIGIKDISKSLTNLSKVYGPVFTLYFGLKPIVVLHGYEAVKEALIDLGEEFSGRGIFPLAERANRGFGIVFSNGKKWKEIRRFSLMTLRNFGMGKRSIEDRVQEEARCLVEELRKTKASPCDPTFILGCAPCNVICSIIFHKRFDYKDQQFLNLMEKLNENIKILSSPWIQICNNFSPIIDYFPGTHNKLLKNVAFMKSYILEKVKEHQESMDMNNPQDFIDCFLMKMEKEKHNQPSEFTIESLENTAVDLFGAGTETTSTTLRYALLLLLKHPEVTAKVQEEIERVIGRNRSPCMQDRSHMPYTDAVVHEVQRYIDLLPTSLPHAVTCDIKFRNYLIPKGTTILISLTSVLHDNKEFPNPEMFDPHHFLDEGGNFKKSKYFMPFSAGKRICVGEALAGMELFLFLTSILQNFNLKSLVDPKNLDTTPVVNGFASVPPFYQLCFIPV
T2 sequence (P10635 whole entry): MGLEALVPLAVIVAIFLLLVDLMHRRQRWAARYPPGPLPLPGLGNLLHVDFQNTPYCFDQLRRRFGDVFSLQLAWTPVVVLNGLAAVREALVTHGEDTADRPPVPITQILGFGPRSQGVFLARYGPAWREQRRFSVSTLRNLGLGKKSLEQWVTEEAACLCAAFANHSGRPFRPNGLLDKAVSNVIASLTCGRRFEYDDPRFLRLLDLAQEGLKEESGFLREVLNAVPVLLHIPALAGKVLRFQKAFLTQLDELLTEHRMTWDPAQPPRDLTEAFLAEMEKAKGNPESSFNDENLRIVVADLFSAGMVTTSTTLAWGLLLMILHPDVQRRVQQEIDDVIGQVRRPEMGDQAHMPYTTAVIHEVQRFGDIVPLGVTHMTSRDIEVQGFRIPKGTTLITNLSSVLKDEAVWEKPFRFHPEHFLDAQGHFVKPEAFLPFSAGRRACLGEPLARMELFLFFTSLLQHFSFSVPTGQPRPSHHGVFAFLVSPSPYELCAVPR
T1 sequence (P33261 whole entry): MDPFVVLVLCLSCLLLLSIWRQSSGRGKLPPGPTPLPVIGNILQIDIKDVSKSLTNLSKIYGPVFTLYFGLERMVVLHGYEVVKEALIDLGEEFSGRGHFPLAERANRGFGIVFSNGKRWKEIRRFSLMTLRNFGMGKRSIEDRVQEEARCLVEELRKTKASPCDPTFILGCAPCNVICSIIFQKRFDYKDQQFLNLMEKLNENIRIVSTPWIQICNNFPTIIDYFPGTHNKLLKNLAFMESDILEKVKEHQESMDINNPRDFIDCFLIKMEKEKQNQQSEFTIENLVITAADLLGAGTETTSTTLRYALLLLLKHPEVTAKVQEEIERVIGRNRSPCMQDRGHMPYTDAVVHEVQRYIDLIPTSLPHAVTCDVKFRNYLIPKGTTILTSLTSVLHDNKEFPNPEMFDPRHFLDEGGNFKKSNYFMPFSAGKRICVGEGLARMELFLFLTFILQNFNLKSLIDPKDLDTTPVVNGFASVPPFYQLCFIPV

By IC50 is commonly meant the concentration needed to halve the response being measured. The term Ki denotes the dissociation constant of the complex between target and ligand, obtained from inhibition or displacement. On to `CC(C)=CCc1cc([C@@H]2CC(=O)c3ccc(O)c(CC=C(C)C)c3O2)cc(CC=C(C)C)c1O` [SPN, (‒)-Sophoranone], for which the 50% inhibitory concentration (IC50) on CYP2C19 is 16800 ± 3210 nM; on CYP2D6 (human liver microsomes 0.1 mg/mL, cocktail assay, dextromethorphan probe, n = 3) it was greater than 50000 nM; at CYP2C9 (IC50, CYP2C9-catalyzed diclofenac 4′-hydroxylation, diclofenac 5 μM), 879 ± 88.8 nM; on CYP2C9 (losartan 5 μM, read-out: IC50, CYP2C9-catalyzed losartan oxidation), 455 ± 48.6 nM; in the data set with CYP3A4 (range over other CYP3A4 substrates), 5620 to 38400 nM. Moreover, the “residual enzyme activity, CYP2D6” value on CYP2D6 (at the highest tested concentration (50 μM)) is 53.9 ± 3.53%. The “shift in IC50 after pre-incubation (time-dependent inactivation of the nine CYPs)” value in data set [1] is recorded as “no obvious shift in IC50”. In addition, the fraction unbound at 4 h, 10 µM in data set [2] (human, human plasma, 10 μM, 37 °C, 4 h, n = 3, read-out: free fraction in human plasma) amounted to 0.000457 ± 6.12e-05; in data set [3] (10 μM, 37 °C, 4 h, n = 3, read-out: free fraction in rat plasma), 0.00038 ± 0.000102; in data set [4] (10 μM) it was 0.00621 ± 0.000405. The fraction unbound at 4 h, 50 µM in [2] (human, human plasma, 50 μM, 37 °C, 4 h, n = 3, read-out: free fraction in human plasma) is 0.000927 ± 0.0004; in data set [3] (50 μM, 37 °C, 4 h, n = 3, read-out: free fraction in rat plasma) it was 0.000531 ± 0.000149; in data set [4] (50 μM), 0.00724 ± 0.0017. Also, the fraction unbound at 4 h in data set [2] (human, human plasma, 10 and 50 μM, read-out: plasma protein binding, human) is less than 0.001; in [2] (mean over human and rat plasma in the range of 10 and 50 μM, read-out: mean unbound fraction in plasma), 0.000574; in data set [3] (10 and 50 μM, read-out: plasma protein binding, rat) it was less than 0.001. In addition, in the data set on CYP3A4 (read-out: Ki, CYP3A4-catalyzed bufalin 5′-hydroxylation), the Ki is 2170 ± 290 nM. Besides, in [5] (male, Sprague-Dawley, rat, plasma, po, Cmax of SPN, oral SPN 75 mg/kg co-administered with diclofenac 2 mg/kg, n = 6), the Cmax is 33.7 ng/mL and 73.2 nM. In [5] (oral SPN 75 mg/kg 15 min before oral diclofenac 2 mg/kg), the “effect of co-administration on the pharmacokinetics of diclofenac and 4′-hydroxydiclofenac” value was “did not alter the pharmacokinetics of diclofenac and 4′-hydroxydiclofenac”. For the same compound, the “Imax,u (unbound maximum concentration in plasma)” value in data set [5] (oral SPN 75 mg/kg, Cmax corrected for plasma protein binding) is 0.0420 ± 0.0184 nM.
